Among the data in patent US20220054465A1, “(PYRIDIN-2-YL)AMINE DERIVATIVES AS TGF-BETA R1 (ALK5) INHIBITORS FOR THE TREATMENT OF CANCER” (Nexys Therapeutics, Inc., priority 2018, published 2022) are IC50, AUCliver/AUCheart and Cardiac toxicity values, retold here.

In one series the test system is HEK-Blue TGFβ cell. Put plainly: HEK-Blue TGFβ cellular reporter gene assay (SEAP readout). It is filed as cell-based. Conditions: HEK-Blue TGFβ cells stimulated with TGF-β, 22-23 h incubation, SEAP read at 630 nm. The gist of the method: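 Cells (2.5×10^5 cells/ml suspension) in DMEM with 0.5% heat-inactivated FBS stimulated with TGF-β (6 ng/ml working solution) plus compound at eight 3-fold dilutions for 22-23 h at 37° C. Supernatant SEAP measured with QUANTI-Blue after 30-40 min, absorbance 630 nm; percent inhibition calculated.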
For orientation: In a reporter assay the amount or activity of a reporter protein is the signal.

Series [1] in a line: Tissue exposure (liver and heart) in Balb/c mouse after PO dosing, general PK protocol. It is filed as in vivo. Conditions: PO (intragastric) 10 mg/Kg, liver and heart tissue 0.5-24 h, LC-MS/MS. The procedure: Comparing AUCliver/AUCheart ratio of selected Examples with clinic compounds Galunisertib and LY3200882. Tissue exposure was measured in Balb/c mouse with PO dosing at 10 mpk. […] See Stauber, et al., J. Clin. Pract., 2014, 4(3), 196.
The Balb/c mice were fasted overnight with free access to drinking water prior to treatment. Compounds were formulated in 0.5% CMC/0.5% Tween 80 with or without 1 eq. of NaOH, and administrated intragastrically at 10 mg/Kg. The liver and heart tissues of mice were collected at time points 0.5, 1, 3, 5, 7, 24 h (2 mice per time point) post dose by first sacrificing the animal by C02 inhalation. After flushing with ice saline and removal of excess water on its surface, the liver and heart tissues were weighed and homogenized in 1:5 volumes (w/v) of water with 20% methanol. Tissue samples were kept at −40˜−20° C. prior to analysis. Concentrations of compounds in the liver and hearts were determined using an established liquid chromatography-tandem mass spectrometry (LC-MS/MS) method. Tissue concentration-time data were processed by linear regression analysis. All pharmacokinetic parameters were calculated using non-compartment model of Pharsight Phoenix 8.0.

The conditions of series [2]: Stauber, et al., J. Clin. Pract., 2014, 4(3), 196; cited from earlier work.

The structures appear in SMILES notation.

A word on the IC50: it is the concentration at which inhibition is half-maximal. The low end stands for greater potency in that assay, the high end for weaker potency in that assay. `CC(C)(C(=O)O)c1cccc(Nc2cc(Oc3cn(C4CC4)nc3C3CCOCC3)ccn2)c1` [Example 74] gave an IC50 in the series on HEK-Blue TGFβ cell of 230 nM. The same molecule yielded an AUCliver/AUCheart in series [1] of 266.

Take `Cc1ccc(Oc2ccnc(Nc3cccc(CCc4nn[nH]n4)c3)c2)c(C)n1` [Example 44, N-(3-(2-(2H-tetrazol-5-yl)ethyl)phenyl)-4-((2,6-dimethylpyridin-3-yl)oxy)pyridin-2-amine]: in the series on HEK-Blue TGFβ cell, the IC50 was determined as 120 nM. In series [1], this molecule had an AUCliver/AUCheart of 29.9.

Regarding `Cc1cccc(-c2nn3c(c2-c2ccnc4ccc(C(N)=O)cc24)CCC3)n1` [Galunisertib, galunisertib, reference compound], the Cardiac toxicity entry in series [2] is recorded as “limiting factor”. In series [1], the AUCliver/AUCheart worked out at 2.9.

In the case of `CC(C)(O)c1cc(Nc2cc(Oc3cn(C4CC4)nc3C3CCOCC3)ccn2)ccn1` [LY3200882, reference compound], the Cardiac toxicity result in series [2] is recorded as “cardiac toxicity was identified as the most relevant”. This molecule also came in with an AUCliver/AUCheart in series [1] of 1.3.

As for `CCc1ccc(Oc2ccnc(Nc3cccc(CCc4nn[nH]n4)c3)c2)c(-c2ccccn2)n1` [Example 175, N-(3-(2-(2H-tetrazol-5-yl)ethyl)phenyl)-4-((6-ethyl-[2,2′-bipyridin]-3-yl)oxy)pyridin-2-amine], 44 nM corresponded to half-maximal inhibition in the series on HEK-Blue TGFβ cell (IC50). Besides, the AUCliver/AUCheart in series [1] is listed as 183.

In turn, `CCc1ccc(Oc2ccnc(Nc3cccc(C(C)(C)C(=O)O)c3)c2)c(-c2ccccc2)n1` [Example 104] registered an IC50 in the series on HEK-Blue TGFβ cell of 22 nM. In series [1], this molecule displayed an AUCliver/AUCheart of 27.8.

In turn, `Cc1ccc(Oc2ccnc(Nc3cccc(CCc4nn[nH]n4)c3)c2)c(-c2ccccc2)n1` [Example 52, N-(3-(2-(2H-tetrazol-5-yl)ethyl)phenyl)-4-((6-methyl-2-phenylpyridin-3-yl)oxy)pyridin-2-amine] yielded an IC50 with HEK-Blue TGFβ cell of 37 nM. The same molecule showed an AUCliver/AUCheart in series [1] of 70.6.

For the molecule `CCc1ccc(Oc2ccnc(Nc3cccc(C(C)(C)C(=O)O)c3)c2)c(C)n1` [Example 81, 2-(3-((4-((6-ethyl-2-methylpyridin-3-yl)oxy)pyridin-2-yl)amino)phenyl)-2-methylpropanoic acid], the IC50 in the series on HEK-Blue TGFβ cell was determined as 31 nM. The molecule further gave an AUCliver/AUCheart in series [1] of 124.

`Cc1cc(Oc2ccnc(Nc3cccc(CCC(=O)O)c3)c2)c(-c2ccccn2)nc1C` [Example 1, 3-(3-((4-((5,6-dimethyl-[2,2′-bipyridin]-3-yl)oxy)pyridin-2-yl)amino)phenyl)propanoic acid] returned an IC50 with HEK-Blue TGFβ cell of 180 nM. The molecule also had an AUCliver/AUCheart in series [1] of 13.2.

In the series on HEK-Blue TGFβ cell, `Cc1ccc(Oc2ccnc(Nc3cccc(C(C)(C)C(=O)O)c3)c2)c(-c2ccccc2)n1` [Example 70, 2-methyl-2-(3-((4-((6-methyl-2-phenylpyridin-3-yl)oxy)pyridin-2-yl)amino)phenyl)propanoic acid] displayed an IC50 of 7 nM. In series [1], this molecule yielded an AUCliver/AUCheart of 67.7.

On to `Cc1cc(Oc2ccnc(Nc3cccc(Cc4nnn[nH]4)c3)c2)c(-c2ccccn2)nc1C` [Example 16, N-(3-((1H-tetrazol-5-yl)methyl)phenyl)-4-((5,6-dimethyl-[2,2′-bipyridin]-3-yl)oxy)pyridin-2-amine], for which, in the series with HEK-Blue TGFβ cell, the IC50 amounted to 390 nM. In series [1], this molecule had an AUCliver/AUCheart of 142.

In the case of `Cc1cc(Oc2ccnc(Nc3cccc(CCc4nn[nH]n4)c3)c2)c(-c2ccccn2)nc1C` [Example 12, N-(3-(2-(2H-tetrazol-5-yl)ethyl)phenyl)-4-((5,6-dimethyl-[2,2′-bipyridin]-3-yl)oxy)pyridin-2-amine], inhibition in the series on HEK-Blue TGFβ cell was half-maximal at 130 nM (IC50). The AUCliver/AUCheart in series [1] came out at 60.9.

In the series on HEK-Blue TGFβ cell, `Cc1nc(-c2ccccn2)c(Oc2ccnc(Nc3cccc(CCc4nn[nH]n4)c3)c2)cc1C(C)C` [Example 183] displayed an IC50 of 240 nM.

`Cc1cc(Oc2ccnc(Nc3cccc(Cc4nnnn4CC(=O)O)c3)c2)c(-c2ccccn2)nc1C` [Example 34B, 2-(5-(3-((4-((5,6-dimethyl-[2,2′-bipyridin]-3-yl)oxy)pyridin-2-yl)amino)benzyl)-1H-tetrazol-1-yl)acetic acid] showed an IC50 in the series on HEK-Blue TGFβ cell greater than 10000 nM.
